We go through 15 compounds from patent US20240294543A1, “CYCLOHEPTA-THIENO-DIAZEPINE DERIVATIVES AS GABA A GAMMA1 PAM” (Hoffmann-La Roche Inc., priority 2021, published 2024).

This assay concerns the target h-GABA-A α2β2γ1 (Homo sapiens (Human), UniProt P47869+Q8N1C3). Description: Two-electrode voltage clamp electrophysiology in Xenopus oocytes expressing GABAA receptors. In kind it is cell-based. Particulars: for Efficacy (GABA) %: % modulation of GABA EC20 = 100*(Fold increase−1), compound at about 30-fold its Ki α2β2γ1; for Fold increase h-GABA-A α2β2γ1 oocyte @ 30-fold Ki: Xenopus oocytes, GABA EC20, compound at about 30-fold its Ki α2β2γ1. The protocol: Xenopus Oocytes Preparation Xenopus laevis oocytes at maturation stages V-VI were used for the expression of cloned mRNA encoding GABAA receptor subunits. Oocytes ready for RNA micro-injection were bought from Ecocyte, Castrop-Rauxel, Germany and stored in modified Barth's medium (composition in mM: NaCl 88, KCl 1, NaHCO3 2.4, HEPES 10, MgSO4 0.82, CaNO3 0.33, CaCl2 0.33, pH=7.5) at 20° C. until the experiment.
Oocytes were plated in 96-well plates for microinjection using the Roboinject automated instrument (MultiChannelSystems, Reutlingen, Germany). Approximately 50 nL of an aqueous solution containing the RNA transcripts for the subunits of the desired GABAA receptor subtype was injected into each oocyte. […] Oocytes were kept in modified Barth's medium (composition in mM: NaCl 88, KCl 1, NaHCO3 […], HEPES 10, MgSO4 0.82, CaNO3 0.33, CaCl2 0.33, pH=7.5) at 20° C. until the experiment.
Electrophysiological experiments were performed using the Roboocyte instrument (MultiChannelSystems, Reutlingen, Germany) on days 3 to 5 after the micro-injection of mRNA. During the experiment the oocytes were constantly superfused by a solution containing (in mM) NaCl 90, KCl 1, HEPES 5, MgCl2 1, CaCl2 1 (pH 7.4). Oocytes were impaled by two glass microelectrodes (resistance: 0.5-0.8 MQ) which were filled with a solution containing KCl 1M+K-acetate 1.5 M and voltage-clamped to −80 mV. The recordings were performed at room temperature using the Roboocyte two-electrode voltage clamp system (Multichannelsystem). After an initial equilibration period of 1.5 min GABA was added for 1.5 min at a concentration evoking approximately 20% of a maximal current response (EC20). After another rest interval of 2.5 min GABA was again added evoking a response of similar amplitude and shape. […] Current traces were recorded at a digitization rate of 10 Hz during and shortly before and after the GABA application.
Each compound and concentration was tested on at least 3 oocytes. Different oocytes were used for different compound concentrations.
For the analysis, the digitized current traces of the first and second GABA response were superimposed and, if necessary, rescaled to equal maximal amplitudes. The ratio between the two responses during the time interval of test compound application was calculated point by point. The extremum of the resulting “ratio trace” was taken as the efficacy (“Fold increase”) of the compound expressed as “% modulation of GABA EC20” (100*(Fold increase−1)).
For orientation: Two-electrode voltage clamp holds a large cell at a set potential and records current.

For `C[C@@H]1N=C(c2c(F)cccc2F)c2c(sc3c2COCCO3)-n2c(C3CC3)nnc21` [Example 43, (7S)-3-cyclopropyl-9-(2,6-difluorophenyl)-7-methyl-13,16-dioxa-18-thia-2,4,5,8-tetrazatetracyclo[8.8.0.02,6.011,17]octadeca-1(10),3,5,8,11(17)-pentaene], the “Efficacy (GABA) %” value was found to be 94% and the “Fold increase h-GABA-A α2β2γ1 oocyte @ 30-fold Ki” value was found to be 1.94.

Take `CC(C)c1nnc2n1-c1sc3c(c1C(c1c(F)cccc1F)=N[C@H]2C)COCCO3` [Example 44, (7S)-9-(2,6-difluorophenyl)-3-isopropyl-7-methyl-13,16-dioxa-18-thia-2,4,5,8-tetrazatetracyclo[8.8.0.02,6.011,17]octadeca-1(10),3,5,8,11(17)-pentaene]: the “Efficacy (GABA) %” value is listed as 116% and the “Fold increase h-GABA-A α2β2γ1 oocyte @ 30-fold Ki” value was 2.16.

With `C[C@@H]1N=C(c2c(F)cccc2F)c2c(sc3c2COCCO3)-n2c(C(F)F)nnc21` [Example 48, (7S)-3-(difluoromethyl)-9-(2,6-difluorophenyl)-7-methyl-13,16-dioxa-18-thia-2,4,5,8-tetrazatetracyclo[8.8.0.02,6.011,17]octadeca-1(10),3,5,8,11(17)-pentaene], the “Efficacy (GABA) %” value is reported as 144% and the “Fold increase h-GABA-A α2β2γ1 oocyte @ 30-fold Ki” value came to 2.44.

As to `CCc1nc2n(n1)-c1sc3c(c1C(c1c(F)cccc1F)=N[C@H]2C)COC[C@H](C)O3` [Example 49, (7S,15S)-9-(2,6-difluorophenyl)-4-ethyl-7,15-dimethyl-13,16-dioxa-18-thia-2,3,5,8-tetrazatetracyclo[8.8.0.02,6.011,17]octadeca-1(10),3,5,8,11(17)-pentaene], the “Efficacy (GABA) %” value is 131% and the “Fold increase h-GABA-A α2β2γ1 oocyte @ 30-fold Ki” value was 2.31.

As to `C[C@@H]1N=C(c2c(F)cccc2F)c2c(sc3c2COC[C@H](C)O3)-n2nc(C(=O)NCCO)nc21` [Example 53, (7S,15S)-9-(2,6-difluorophenyl)-N-(2-hydroxyethyl)-7,15-dimethyl-13,16-dioxa-18-thia-2,3,5,8-tetrazatetracyclo[8.8.0.02,6.011,17]octadeca-1(10),3,5,8,11(17)-pentaene-4-carboxamide], the “Efficacy (GABA) %” value is given as 237% and the “Fold increase h-GABA-A α2β2γ1 oocyte @ 30-fold Ki” value came to 3.37.

As to `Cc1nnc2n1-c1sc3c(c1C(c1c(F)cccc1F)=N[C@H]2C)CC[C@@H](F)CO3` [Example 56, (7S,14R)-9-(2,6-difluorophenyl)-14-fluoro-3,7-dimethyl-16-oxa-18-thia-2,4,5,8-tetrazatetracyclo[8.8.0.02,6.011,17]octadeca-1(10),3,5,8,11(17)-pentaene], the “Efficacy (GABA) %” value is given as 147% and the “Fold increase h-GABA-A α2β2γ1 oocyte @ 30-fold Ki” value is given as 2.47.

As to `Cc1nc2n(n1)-c1sc3c(c1C(c1c(F)cccc1F)=N[C@H]2C)COCCC3` [Example 57, (7S)-9-(2,6-difluorophenyl)-4,7-dimethyl-13-oxa-18-thia-2,3,5,8-tetrazatetracyclo[8.8.0.02,6.011,17]octadeca-1(10),3,5,8,11(17)-pentaene], the “Efficacy (GABA) %” value was 73% and the “Fold increase h-GABA-A α2β2γ1 oocyte @ 30-fold Ki” value stood at 1.73.

In the case of `C[C@@H]1N=C(c2c(F)cccc2F)c2c(sc3c2COCCC3)-n2nc(C(=O)NCC3(O)CC3)nc21` [Example 62, (7S)-9-(2,6-difluorophenyl)-N-[(1-hydroxycyclopropyl)methyl]-7-methyl-13-oxa-18-thia-2,3,5,8-tetrazatetracyclo[8.8.0.02,6.011,17]octadeca-1(10),3,5,8,11(17)-pentaene-4-carboxamide], the “Efficacy (GABA) %” value was 179% and the “Fold increase h-GABA-A α2β2γ1 oocyte @ 30-fold Ki” value came out at 2.79.

For `C[C@@H]1N=C(c2c(F)cccc2F)c2c(sc3c2COCCC3)-n2nc(C(=O)N[C@H]3C[C@H](O)C3)nc21` [Example 63, (7S)-9-(2,6-difluorophenyl)-N-(trans-3-hydroxycyclobutyl)-7-methyl-13-oxa-18-thia-2,3,5,8-tetrazatetracyclo[8.8.0.02,6.011,17]octadeca-1(10),3,5,8,11(17)-pentaene-4-carboxamide], the “Efficacy (GABA) %” value was 169% and the “Fold increase h-GABA-A α2β2γ1 oocyte @ 30-fold Ki” value stood at 2.69.

As to `C[C@@H]1N=C(c2c(F)cccc2F)c2c(sc3c2COCCC3)-n2nc(C(=O)N[C@H]3C[C@@H](O)C3)nc21` [Example 64, (7S)-9-(2,6-difluorophenyl)-N-(cis-3-hydroxycyclobutyl)-7-methyl-13-oxa-18-thia-2,3,5,8-tetrazatetracyclo[8.8.0.02,6.011,17]octadeca-1(10),3,5,8,11(17)-pentaene-4-carboxamide], the “Efficacy (GABA) %” value was determined as 164% and the “Fold increase h-GABA-A α2β2γ1 oocyte @ 30-fold Ki” value is reported as 2.64.

On to `C[C@@H]1N=C(c2c(F)cccc2F)c2c(sc3c2COCCO3)-n2cc(C(=O)NCC3(O)CC3)nc21` [Example 65, (7S)-9-(2,6-difluorophenyl)-N-[(1-hydroxycyclopropyl)methyl]-7-methyl-13,16-dioxa-18-thia-2,5,8-triazatetracyclo[8.8.0.02,6.011,17]octadeca-1(10),3,5,8,11(17)-pentaene-4-carboxamide], for which the “Efficacy (GABA) %” value was 169% and the “Fold increase h-GABA-A α2β2γ1 oocyte @ 30-fold Ki” value came to 2.69.

As to `C[C@@H]1N=C(c2c(F)cccc2F)c2c(sc3c2COCCC3)-n2cc(C(=O)NCCO)nc21` [Example 66, (7S)-9-(2,6-difluorophenyl)-N-(2-hydroxyethyl)-7-methyl-13-oxa-18-thia-2,5,8-triazatetracyclo[8.8.0.02,6.011,17]octadeca-1(10),3,5,8,11(17)-pentaene-4-carboxamide], the “Efficacy (GABA) %” value is reported as 153% and the “Fold increase h-GABA-A α2β2γ1 oocyte @ 30-fold Ki” value is listed as 2.53.

Regarding `C[C@@H]1N=C(c2c(F)cccc2F)c2c(sc3c2COCCC3)-n2cc(C(=O)NCC(C)(C)O)nc21` [Example 67, (7S)-9-(2,6-difluorophenyl)-N-(2-hydroxy-2-methyl-propyl)-7-methyl-13-oxa-18-thia-2,5,8-triazatetracyclo[8.8.0.02,6.011,17]octadeca-1(10),3,5,8,11(17)-pentaene-4-carboxamide], the “Efficacy (GABA) %” value was determined as 164% and the “Fold increase h-GABA-A α2β2γ1 oocyte @ 30-fold Ki” value is 2.64.

For the compound `C[C@@H]1N=C(c2c(F)cccc2F)c2c(sc3c2COCCC3)-n2cc(C(=O)NCC3(O)CC3)nc21` [Example 68, (7S)-9-(2,6-difluorophenyl)-N-[(1-hydroxycyclopropyl)methyl]-7-methyl-13-oxa-18-thia-2,5,8-triazatetracyclo[8.8.0.02,6.011,17]octadeca-1(10),3,5,8,11(17)-pentaene-4-carboxamide], the “Efficacy (GABA) %” value was 159% and the “Fold increase h-GABA-A α2β2γ1 oocyte @ 30-fold Ki” value is 2.59.

On to `C[C@@H]1N=C(c2c(F)cccc2F)c2c(sc3c2COCCC3)-n2nc(C(=O)NC[C@@](C)(O)C(F)(F)F)nc21` [Example 70, (7S)-9-(2,6-difluorophenyl)-7-methyl-N-[(2R)-3,3,3-trifluoro-2-hydroxy-2-methyl-propyl]-13-oxa-18-thia-2,3,5,8-tetrazatetracyclo[8.8.0.02,6.011,17]octadeca-1(10),3,5,8,11(17)-pentaene-4-carboxamide], for which the “Efficacy (GABA) %” value came out at 148% and the “Fold increase h-GABA-A α2β2γ1 oocyte @ 30-fold Ki” value was determined as 2.48.
